Experimental data as given in PubChem BioAssay AID1259407 (Chemical Carcinogenesis Research Information System (CCRIS), 2018).
Active and inactive are the calls of the source. The rule behind the calls is not given here.

Tested on: CCRIS mutagenicity, Ames/micronucleus/aberration tests
Test: CCRIS mutagenicity studies
[1] = Test System: AMES SALMONELLA TYPHIMURIUM, Strain/Indicator: TA98, Metabolic Activation: NONE, Method: PREINCUBATION
[2] = Test System: AMES SALMONELLA TYPHIMURIUM, Strain/Indicator: TA100, Metabolic Activation: NONE, Method: PREINCUBATION
[3] = Test System: AMES SALMONELLA TYPHIMURIUM, Strain/Indicator: TA1535, Metabolic Activation: NONE, Method: PREINCUBATION
[4] = Test System: AMES SALMONELLA TYPHIMURIUM, Strain/Indicator: TA1537, Metabolic Activation: NONE, Method: PREINCUBATION
[5] = Test System: AMES SALMONELLA TYPHIMURIUM, Strain/Indicator: TA98, Metabolic Activation: NONE, Method: STANDARD PLATE
[6] = Test System: AMES SALMONELLA TYPHIMURIUM, Strain/Indicator: TA98, Metabolic Activation: RAT, LIVER, S-9, AROCLOR 1254, Method: STANDARD PLATE
[7] = Test System: AMES SALMONELLA TYPHIMURIUM, Strain/Indicator: TA100, Metabolic Activation: NONE, Method: STANDARD PLATE
[8] = Test System: AMES SALMONELLA TYPHIMURIUM, Strain/Indicator: TA100, Metabolic Activation: RAT, LIVER, S-9, AROCLOR 1254, Method: STANDARD PLATE
[9] = Test System: AMES SALMONELLA TYPHIMURIUM, Strain/Indicator: TA1538, Metabolic Activation: NONE, Method: STANDARD PLATE
[10] = Test System: AMES SALMONELLA TYPHIMURIUM, Strain/Indicator: TA1538, Metabolic Activation: RAT, LIVER, S-9, AROCLOR 1254, Method: STANDARD PLATE

For OCCN1CN(CCO)CN(CCO)C1, the mutagenic call (Test System: AMES SALMONELLA TYPHIMURIUM, Strain/Indicator: TA98, Metabolic Activation: HAMSTER, LIVER, S-9, AROCLOR 1254 (10%), Method: PREINCUBATION) was “inactive; negative”, the mutagenic call [1] was “inactive; negative” and the mutagenic call (Test System: AMES SALMONELLA TYPHIMURIUM, Strain/Indicator: TA98, Metabolic Activation: RAT, LIVER, S-9, AROCLOR 1254 (10%), Method: PREINCUBATION) was “inactive; negative”. The mutagenic call (Test System: AMES SALMONELLA TYPHIMURIUM, Strain/Indicator: TA100, Metabolic Activation: HAMSTER, LIVER, S-9, AROCLOR 1254 (10%), Method: PREINCUBATION) was “active; positive”, the mutagenic call [2] was “inactive; negative” and the mutagenic call (Test System: AMES SALMONELLA TYPHIMURIUM, Strain/Indicator: TA100, Metabolic Activation: RAT, LIVER, S-9, AROCLOR 1254 (10%), Method: PREINCUBATION) was “inactive; negative”. For the same compound, the mutagenic call (Test System: AMES SALMONELLA TYPHIMURIUM, Strain/Indicator: TA1535, Metabolic Activation: HAMSTER, LIVER, S-9, AROCLOR 1254 (10%), Method: PREINCUBATION) was “inactive; negative”, the mutagenic call [3] was “inactive; negative” and the mutagenic call (Test System: AMES SALMONELLA TYPHIMURIUM, Strain/Indicator: TA1535, Metabolic Activation: RAT, LIVER, S-9, AROCLOR 1254 (10%), Method: PREINCUBATION) was “inactive; negative”. For the same compound, the mutagenic call (Test System: AMES SALMONELLA TYPHIMURIUM, Strain/Indicator: TA1537, Metabolic Activation: HAMSTER, LIVER, S-9, AROCLOR 1254 (10%), Method: PREINCUBATION) was “inactive; negative”, the mutagenic call [4] was “inactive; negative” and the mutagenic call (Test System: AMES SALMONELLA TYPHIMURIUM, Strain/Indicator: TA1537, Metabolic Activation: RAT, LIVER, S-9, AROCLOR 1254 (10%), Method: PREINCUBATION) was “inactive; negative”.

With Nc1ccc2c(c1)Cc1cc(N)ccc1-2 the mutagenic call [5] was “active; positive”, the mutagenic call [6] was “active; positive” and the mutagenic call [7] was “inactive; negative”. The mutagenic call [8] was “active; positive”, the mutagenic call [9] was “active; positive” and the mutagenic call [10] was “active; positive”.

In the case of C[C@@H]1CC[C@@]2(OC1)O[C@H]1C[C@H]3[C@@H]4CC=C5C[C@@H](O[C@@H]6O[C@H](CO)[C@@H](O)[C@H](O[C@@H]7O[C@H](CO)[C@@H](O)[C@H](O)[C@H]7O)[C@H]6O[C@@H]6O[C@@H](C)[C@H](O)[C@@H](O)[C@H]6O)CC[C@]5(C)[C@H]4CC[C@]3(C)[C@H]1[C@@H]2C, the mutagenic call [5] is reported as “inactive; negative”, the mutagenic call (Test System: AMES SALMONELLA TYPHIMURIUM, Strain/Indicator: TA98, Metabolic Activation: RAT, LIVER, S-9, PHENOBARBITAL, Method: STANDARD PLATE) is reported as “inactive; negative” and the mutagenic call [7] is reported as “inactive; negative”. The mutagenic call (Test System: AMES SALMONELLA TYPHIMURIUM, Strain/Indicator: TA100, Metabolic Activation: RAT, LIVER, S-9, PHENOBARBITAL, Method: STANDARD PLATE) was “inactive; negative”.

C[n+]1cccc(C(=O)[O-])c1 was tested, and the mutagenic call (Test System: AMES SALMONELLA TYPHIMURIUM, Strain/Indicator: TA98, Metabolic Activation: HAMSTER, LIVER, S-9, AROCLOR 1254, Method: STANDARD PLATE) was “inactive; negative”, the mutagenic call [5] was “inactive; negative” and the mutagenic call (Test System: AMES SALMONELLA TYPHIMURIUM, Strain/Indicator: TA98, Metabolic Activation: RAT LIVER S-9, CHLOROPHENE, Method: STANDARD PLATE (COMPOUND HEATED AT 250 DEGREES CELSIUS FOR 20 MIN)) was “active; positive”. The mutagenic call [6] was “inactive; negative”, the mutagenic call (Test System: AMES SALMONELLA TYPHIMURIUM, Strain/Indicator: TA100, Metabolic Activation: HAMSTER, LIVER, S-9, AROCLOR 1254, Method: STANDARD PLATE) was “inactive; negative” and the mutagenic call [7] was “inactive; negative”. For the same compound, the mutagenic call [8] was “inactive; negative”, the mutagenic call (Test System: AMES SALMONELLA TYPHIMURIUM, Strain/Indicator: TA1535, Metabolic Activation: HAMSTER, LIVER, S-9, AROCLOR 1254, Method: STANDARD PLATE) was “inactive; negative” and the mutagenic call (Test System: AMES SALMONELLA TYPHIMURIUM, Strain/Indicator: TA1535, Metabolic Activation: NONE, Method: STANDARD PLATE) was “inactive; negative”. For the same compound, the mutagenic call (Test System: AMES SALMONELLA TYPHIMURIUM, Strain/Indicator: TA1535, Metabolic Activation: RAT, LIVER, S-9, AROCLOR 1254, Method: STANDARD PLATE) was “inactive; negative”, the mutagenic call (Test System: AMES SALMONELLA TYPHIMURIUM, Strain/Indicator: TA1537, Metabolic Activation: HAMSTER, LIVER, S-9, AROCLOR 1254, Method: STANDARD PLATE) was “inactive; negative” and the mutagenic call (Test System: AMES SALMONELLA TYPHIMURIUM, Strain/Indicator: TA1537, Metabolic Activation: NONE, Method: STANDARD PLATE) was “inactive; negative”. For the same compound, the mutagenic call (Test System: AMES SALMONELLA TYPHIMURIUM, Strain/Indicator: TA1537, Metabolic Activation: RAT, LIVER, S-9, AROCLOR 1254, Method: STANDARD PLATE) was “inactive; negative”, the mutagenic call (Test System: AMES SALMONELLA TYPHIMURIUM, Strain/Indicator: TA1538, Metabolic Activation: HAMSTER, LIVER, S-9, AROCLOR 1254, Method: STANDARD PLATE) was “inactive; negative” and the mutagenic call [9] was “inactive; negative”. The mutagenic call [10] was “inactive; negative”, the mutagenic call (Test System: MOUSE LYMPHOMA, Strain/Indicator: L5178Y (TK+/TK-), Metabolic Activation: NONE, Method: SUSPENSION/PLATE) was “inactive; negative. reevaluation of results: inconclusive” and the mutagenic call (Test System: MOUSE LYMPHOMA, Strain/Indicator: L5178Y (TK+/TK-), Metabolic Activation: RAT, LIVER, S-9, AROCLOR 1254, Method: SUSPENSION/PLATE) was “inactive; negative. reevaluation of results: inconclusive”.

For CCCCCCCCCCCCc1ccccc1, the mutagenic call [1] was “inactive; negative”, the mutagenic call (Test System: AMES SALMONELLA TYPHIMURIUM, Strain/Indicator: TA98, Metabolic Activation: RAT, LIVER, S-9, KC 500, Method: PREINCUBATION) was “inactive; negative” and the mutagenic call [2] was “inactive; negative”. The mutagenic call (Test System: AMES SALMONELLA TYPHIMURIUM, Strain/Indicator: TA100, Metabolic Activation: RAT, LIVER, S-9, KC 500, Method: PREINCUBATION) was “inactive; negative”, the mutagenic call [3] was “inactive; negative” and the mutagenic call (Test System: AMES SALMONELLA TYPHIMURIUM, Strain/Indicator: TA1535, Metabolic Activation: RAT, LIVER, S-9, KC 500, Method: PREINCUBATION) was “inactive; negative”. The mutagenic call [4] was “inactive; negative”, the mutagenic call (Test System: AMES SALMONELLA TYPHIMURIUM, Strain/Indicator: TA1537, Metabolic Activation: RAT, LIVER, S-9, KC 500, Method: PREINCUBATION) was “inactive; negative” and the mutagenic call (Test System: AMES SALMONELLA TYPHIMURIUM, Strain/Indicator: TA1538, Metabolic Activation: NONE, Method: PREINCUBATION) was “inactive; negative”. The mutagenic call (Test System: AMES SALMONELLA TYPHIMURIUM, Strain/Indicator: TA1538, Metabolic Activation: RAT, LIVER, S-9, KC 500, Method: PREINCUBATION) was “inactive; negative”, the mutagenic call (Test System: E. COLI, Strain/Indicator: WP2 UVRA, Metabolic Activation: NONE, Method: PREINCUBATION) was “inactive; negative” and the mutagenic call (Test System: E. COLI, Strain/Indicator: WP2 UVRA, Metabolic Activation: RAT, LIVER, S-9, KC 500, Method: PREINCUBATION) was “inactive; negative”.
